Laboratory results as given in ChEMBL document CHEMBL1142082, “Oral versus intravenous flucytosine in patients with human immunodeficiency virus-associated cryptococcal meningitis” (Antimicrob Agents Chemother, 2007).

What was measured:
Homo sapiens [1] = test: Effect on hemoglobin level in intravenously dosed HIV associated cryptococcal meningitis patient relative to control; format: functional
Homo sapiens [2] = test: Effect on neutrophils level in orally dosed HIV associated cryptococcal meningitis patient relative to control; format: functional
Homo sapiens [3] = test: Effect on neutrophils level in intravenously dosed HIV associated cryptococcal meningitis patient relative to control; format: functional
Homo sapiens [4] = test: Effect on platelet count in orally dosed HIV associated cryptococcal meningitis patient relative to control; format: functional
Homo sapiens [5] = test: Effect on platelet count in intravenously dosed HIV associated cryptococcal meningitis patient relative to control; format: functional
Homo sapiens [6] = test: Effect on alanine transferase level in orally dosed HIV associated cryptococcal meningitis patient relative to control; format: functional
Homo sapiens [7] = test: Effect on alanine transferase level in intravenously dosed HIV associated cryptococcal meningitis patient relative to control; format: functional
Homo sapiens [8] = test: Effect on aspartate aminotransferase level in orally dosed HIV associated cryptococcal meningitis patient relative to control; format: functional
Homo sapiens [9] = test: Effect on aspartate aminotransferase level in intravenously dosed HIV associated cryptococcal meningitis patient relative to control; format: functional
Homo sapiens [10] = test: Effect on creatinine clearance in orally dosed HIV associated cryptococcal meningitis patient relative to control; format: functional
Homo sapiens [11] = test: Effect on creatinine clearance in intravenously dosed HIV associated cryptococcal meningitis patient relative to control; format: functional
[12] = Fungicidal activity in HIV associated Cryptococcal meningitis patient; format: functional, Cryptococcus
[13] = Fungicidal activity in orally dosed HIV associated cryptococcal meningitis patient; format: functional, Cryptococcus
[14] = Fungicidal activity in intravenously dosed HIV associated cryptococcal meningitis patient; format: functional, Cryptococcus
Homo sapiens [15] = test: Effect on hemoglobin level in orally dosed HIV associated cryptococcal meningitis patient after 2 weeks relative to baseline; format: functional
Homo sapiens [16] = test: Effect on hemoglobin level in intravenously dosed HIV associated cryptococcal meningitis patient after 2 weeks relative to baseline; format: functional
Homo sapiens [17] = test: Effect on neutrophils level in orally dosed HIV associated cryptococcal meningitis patient after 2 weeks relative to baseline; format: functional
Homo sapiens [18] = test: Effect on neutrophils level in intravenously dosed HIV associated cryptococcal meningitis patient after 2 weeks relative to baseline; format: functional
Homo sapiens [19] = test: Effect on platelet count in orally dosed HIV associated cryptococcal meningitis patient after 2 weeks relative to baseline; format: functional
Homo sapiens [20] = test: Effect on platelet count in intravenously dosed HIV associated cryptococcal meningitis patient after 2 weeks relative to baseline; format: functional
Homo sapiens [21] = test: Effect on alanine transferase level in orally dosed HIV associated cryptococcal meningitis patient after 2 weeks relative to baseline; format: functional
Homo sapiens [22] = test: Effect on alanine transferase level in intravenously dosed HIV associated cryptococcal meningitis patient after 2 weeks relative to baseline; format: functional
Homo sapiens [23] = test: Effect on aspartate aminotransferase level in orally dosed HIV associated cryptococcal meningitis patient after 2 weeks relative to baseline; format: functional
Homo sapiens [24] = test: Effect on aspartate aminotransferase level in intravenously dosed HIV associated cryptococcal meningitis patient after 2 weeks relative to baseline; format: functional
Homo sapiens [25] = test: Effect on hemoglobin level in orally dosed HIV associated cryptococcal meningitis patient relative to control; format: functional
Homo sapiens [26] = test: Effect on creatinine clearance in orally dosed HIV associated cryptococcal meningitis patient after 2 weeks relative to baseline; format: functional
Homo sapiens [27] = test: Effect on creatinine clearance in intravenously dosed HIV associated cryptococcal meningitis patient after 2 weeks relative to baseline; format: functional
[28] = Oral clearance in HIV associated cryptococcal meningitis patient; format: ADME, organism-based; settings: human, in vivo
Homo sapiens [29] = test: Volume of distribution in orally dosed HIV associated cryptococcal meningitis patient normalized to weight; format: ADME, organism-based; settings: in vivo, po
[30] = Clearance in intravenously dosed HIV associated cryptococcal meningitis patient; format: ADME, organism-based; settings: human, in vivo, iv
[31] = Volume of distribution in intravenously dosed HIV associated cryptococcal meningitis patient normalized to weight; format: ADME, organism-based; settings: human, in vivo, iv; read-out: Vdss
[32] = AUC in orally dosed HIV associated cryptococcal meningitis patient at 24 hrs; format: ADME, organism-based; design: time < 24 hr, route oral; settings: human, plasma, po
[33] = AUC in intravenously dosed HIV associated cryptococcal meningitis patient at 24 hrs; format: ADME, organism-based; design: time < 24 hr, route intravenous; settings: human, plasma, iv

## Nc1nc(=O)[nH]cc1F [FLUCYTOSINE]
Homo sapiens [1]
  Activity: 11.2 g/dL
Homo sapiens [2]
  Activity: 4.5 10^9/L
Homo sapiens [3]
  Activity: 5.6 10^9/L
Homo sapiens [4]
  Activity: 263 10^9/L
Homo sapiens [5]
  Activity: 249 10^9/L
Homo sapiens [6]
  Activity: 43 U/L
Homo sapiens [7]
  Activity: 38 U/L
Homo sapiens [8]
  Activity: 40 U/L
Homo sapiens [9]
  Activity: 33 U/L
Homo sapiens [10]
  Creatinine_CL: 75 mL/min
Homo sapiens [11]
  Creatinine_CL: 74 mL/min
[12]
  log10cfu/day: -0.46
[13]
  log10cfu/day: -0.48
[14]
  log10cfu/day: -0.43
Homo sapiens [15]
  Activity: 70%
Homo sapiens [16]
  Activity: 78%
Homo sapiens [17]
  Activity: 73%
Homo sapiens [18]
  Activity: 59%
Homo sapiens [19]
  Activity: 112%
Homo sapiens [20]
  Activity: 83%
Homo sapiens [21]
  Activity: 94%
Homo sapiens [22]
  Activity: 86%
Homo sapiens [23]
  Activity: 69%
Homo sapiens [24]
  Activity: 100%
Homo sapiens [25]
  Activity: 10.6 g/dL
Homo sapiens [26]
  Activity: 83%
Homo sapiens [27]
  Activity: 76%
[28]
  CL/F: 112 mL/min
Homo sapiens [29]
  Vdss: 1.41 L/kg
[30]
  clearance: 63.3 mL/min
[31]
  Vd: 0.94 L/kg
[32]
  AUC at 24 h: 576 µg·h/mL
[33]
  AUC at 24 h: 1290 µg·h/mL
